From ChEMBL document CHEMBL1141947, “Inhibitors of the serotonin transporter protein (SERT): the design and synthesis of biotinylated derivatives of 3-(1,2,3,6-tetrahydro-pyridin-4-yl)-1H-indoles. High-affinity serotonergic ligands for conjugation with quantum dots” (Bioorg Med Chem Lett, 2005) come the findings set out here.

Experiment [1] deals with T1, Sodium-dependent serotonin transporter (Homo sapiens, UniProt P31645). As to the kind of experiment: Inhibitory activity against human SERT transfected in HEK293 cells. Type of experiment: cell-based.
T1 sequence (P31645 whole entry): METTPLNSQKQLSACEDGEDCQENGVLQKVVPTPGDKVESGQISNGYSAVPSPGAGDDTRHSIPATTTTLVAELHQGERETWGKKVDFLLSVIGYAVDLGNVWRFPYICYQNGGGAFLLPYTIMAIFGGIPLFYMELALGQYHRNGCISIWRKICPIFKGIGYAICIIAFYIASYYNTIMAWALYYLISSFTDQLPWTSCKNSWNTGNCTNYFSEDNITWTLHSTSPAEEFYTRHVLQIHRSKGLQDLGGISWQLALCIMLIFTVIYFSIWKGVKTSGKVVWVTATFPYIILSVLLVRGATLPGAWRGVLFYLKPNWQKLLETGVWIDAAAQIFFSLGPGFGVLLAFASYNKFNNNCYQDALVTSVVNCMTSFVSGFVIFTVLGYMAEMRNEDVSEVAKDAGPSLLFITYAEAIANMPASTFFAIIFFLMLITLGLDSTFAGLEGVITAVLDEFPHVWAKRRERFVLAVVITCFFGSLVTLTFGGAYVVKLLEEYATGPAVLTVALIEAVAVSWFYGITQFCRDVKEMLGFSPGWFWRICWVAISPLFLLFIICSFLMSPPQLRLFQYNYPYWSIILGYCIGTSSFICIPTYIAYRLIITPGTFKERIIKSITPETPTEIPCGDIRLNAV
The target of experiment [2] is T1, Sodium-dependent serotonin transporter. The experiment in a line: Inhibitory activity of compound bound to streptavidin-conjugated quantum dots against human SERT transfected in HEK293 cells. The experiment is classed as cell-based.

Take `NCCc1c[nH]c2ccc(OCCOCCOCCS)cc12`: the IC50 (commonly the midpoint of a concentration-inhibition curve) in experiment [1] was 115 µM; in experiment [2], 99 µM.

On to `O=C(CCCCC1SCC2NC(=O)NC21)NCCN1CC=C(c2c[nH]c3ccccc23)CC1` (centres undefined), for which the IC50 was found to be 0.002 µM in experiment [1] and 0.03 µM in experiment [2].
